Where two headings read alike, the source gives them in different places.
Tested on: HCV Huh-luc/neo-ET cells (HCV replicon)
Experiment: Luciferase-based HCV replicon assay, single agents and combinations
Assay type: cell-based, hepatitis C virus
Details: for increase of potency in the presence of Compound 2: Compound 2 at concentrations readily achieved clinically, FIGS. 2b, 3b, Table 2
Description: The cell culture component of the assay is performed essentially as described by Bartenschlager et al., Hepatology, 2002, 35, 694-703, wherein exponentially growing HCV Huh-luc/neo-ET cells are seeded at 6×10^3 cells/well in 96 well assay plate. 24 hours later the cells are treated with various concentrations of compound or combination of compounds in triplicate using both fixed ratios and checkerboard matrices of test agents and cultured for 72 hours. The luciferase activity in the wells is determined using Bright-Glo reagent (Promega, Madison, Wis.) with a luminometer (Wallac 1420 Multilabel HTS Counter Victor 2). The background control is replicon cells treated with 100 nM BILN-2061, an inhibitor of the HCV protease. % Inhibition is determined for each compound concentration or combination of compounds in relation to the negative (no compound) control to calculate the EC50. In the case of ANA773, conditioned media from human PBMCs from multiple donors is pooled after treatment with 100 μM of the active of ANA773 for 24 hours.
Compound 2 was evaluated in combination with Interferon α-2a, Telaprevir (HCV NS3/4 protease inhibitor, also known as VX-950), PSI-6130 the active agent of R7128 (HCV NS5B nucleoside inhibitor), and ANA773 (TLR7 agonist). The 50% inhibitory concentration (EC50) of each compound or combination of compounds is determined independently to determine the range of concentrations used to characterize the interaction of two agents in inhibiting the HCV replicon. […] The ratio of the two compounds tested either remained fixed or is varied across the dosing range to explore the greatest combination surface.
The combination data is analyzed using CalcuSyn (Biosoft, Ferguson, Mo.), a computer program based on the method of Chou and Talalay, J. Biol. Chem., 1977, 252, 6438-6442. Combination index (CI) values for each experimental combination are calculated at the EC50, EC75 and EC90 levels. CI values of <1, 1, and >1 indicate synergy, an additive effect, and antagonism, respectively.

| SMILES | EC90 (Compound 2 at 0 ng/mL (agent alone), read-out: EC90) | increase of potency in the presence of Compound 2 | EC90 (in presence of fixed Compound 2 at 6 ng/mL, read-out: EC90) | EC90 (in presence of fixed Compound 2 at 17 ng/mL, read-out: EC90) | EC90 (Hepatitis C virus, Huh-luc/neo-ET, Compound 2 at 0 ng/mL (agent alone)) | EC90 (Hepatitis C virus, Huh-luc/neo-ET, in presence of fixed Compound 2 at 6 ng/mL) | EC90 (Hepatitis C virus, Huh-luc/neo-ET, in presence of fixed Compound 2 at 17 ng/mL) | EC90 (Hepatitis C virus, Huh-luc/neo-ET, in presence of fixed Compound 2 at 170 ng/mL) |
| --- | --- | --- | --- | --- | --- | --- | --- | --- |
| C[C@@]1(F)[C@H](O)[C@@H](CO)O[C@H]1n1ccc(N)nc1=O [PSI-6130] | 11.6 µM | 4-5 fold | 6 µM | 2.4 µM |  |  |  |  |
| CCC[C@H](NC(=O)[C@@H]1[C@H]2CCC[C@H]2CN1C(=O)[C@@H](NC(=O)[C@@H](NC(=O)c1cnccn1)C1CCCCC1)C(C)(C)C)C(=O)C(=O)NC1CC1 [Telaprevir] |  | 2-3 fold |  |  | 2.8 µM | 2.4 µM | 1.9 µM | 1.3 µM |

Source: patent US20110229438A1, “METHOD OF INHIBITING HEPATITUS C VIRUS BY COMBINATION OF A 5,6-DIHYDRO-1H-PYRIDIN-2-ONE AND ONE OR MORE ADDITIONAL ANTIVIRAL COMPOUNDS” (priority 2008, published 2011)
